4 compounds from patent publication US20190209548A1, “LINKED DIARYL COMPOUNDS WITH ANTICANCER PROPERTIES AND METHODS OF USING THE SAME” (University of Maryland, College Park, priority 2014, published 2019) can be followed below.

For one assay, the system named is 22mer hTel K^+. The assay can be described thus: ITC titration with hTel G-quadruplex, K+ form. The assay is classed as binding, human. Here is the method:
(§1) Isothermal titration calorimetry. ITC experiments were performed using a VP-ITC calorimeter (GE-Healthcare). A typical ITC experiment involved as many as addition of 28 (10 μL) injections of as high as 1 mM ligand solutions into ˜1.5 mL of a dilute DNA solution (10 μM). Corrected titration curves were achieved by subtracting the blank titration data from the ITC-data for the ligand-DNA titrations. Corrected ITC titrations were fit with a nonlinear regression algorithm again using the CHASM ITC data analysis program developed in our laboratory.
(§2) DNA stock solutions were prepared by reconstituting the lyophilized oligonucleotide into 20 mM Tris buffer with a salt concentration of 100 mM KCl and a pH of 7.2. Approximately 2 mL of the oligonucleotide was dialyzed (1000 Mw cutoff membrane) against three changes of buffer solution (1 L, 24 h each) at 4° C. The concentrations of stock DNA solutions were verified using UV-Vis. G-Quadruplex DNAs were annealed by quickly heating to sample to 100° C., holding at 100° C. for ten minutes then slowly cooling to 5° C. over three hours period. Molar extinction coefficient of the DNAs were determined using a nearest-neighbor method for single stranded DNA. The extinction coefficients at 260 nm for the WT 27-mer bcl-2, WT 24-mer c-myc, WT 22-mer human telomere hTel sequences are 267,200 M^−1cm^−1, 248,100 M^−1cm^−1, and 228,500 M^−1cm^−1 respectively. […]

Another assay relates to 8 bp AT. The assay can be described thus: CD titration with AT-rich duplex DNA. To be noted: ligand 40 μM, 8 bp AT 0-50 μM. The assay is classed as binding. The protocol: CD experiments for binding of ligands with duplex DNA (AT-rich). CD titration experiments, monitoring in the wavelength region corresponding to the bound ligand, were performed with different concentrations of 8 bp AT (0-50 μM) added to a fixed concentration of either DMZ or Triazene-1 (40 μM).

Another assay relates to 22mer hTel Na^+. The assay is described as follows: ITC titration with hTel G-quadruplex, Na+ form. It counts as binding, human. To be noted: Na+ form of hTel22. The protocol:
as §1
as §2, with “DNA stock solutions were prepared by reconstituting the lyophilized oligonucleotide into 20 mM Tris buffer with a salt concentration of 100 mM KCl and a pH of 7.2.” left out

A further assay relates to 7bp HP•AT. The assay is described as follows: ITC titration with 7 bp hairpin containing A2T2. It counts as binding. The protocol: as §1
(§3) DNA stock solutions were prepared by reconstituting the lyophilized oligonucleotide into 20 mM Tris buffer with a salt concentration of 100 mM KCl and a pH of 7.2. Approximately 2 mL of the oligonucleotide was dialyzed (1000 Mw cutoff membrane) against three changes of buffer solution (1 L, 24 h each) at 4° C. The concentrations of stock DNA solutions were verified using UV-Vis. G-Quadruplex DNAs were annealed by quickly heating to sample to 100° C., holding at 100° C. for ten minutes then slowly cooling to 5° C. over three hours period. Molar extinction coefficient of the DNAs were determined using a nearest-neighbor method for single stranded DNA. The extinction coefficients at 260 nm for the WT 27-mer bcl-2, WT 24-mer c-myc, WT 22-mer human telomere hTel sequences are 267,200 M^−1cm^−1, 248,100 M^−1cm^−1, and 228,500 M^−1cm^−1 respectively. The extinction coefficient at 260 nm for the 7 base pair hairpin with A2T2 (7 bp HP⋅AT) and the 7 base pair hairpin without A2T2 (7 bp HP) are 165,200 M^−1cm^−1 and 159,200 M^−1cm^−1 respectively. Cell culture grade water purchased from Corning was used for all experiments.
(In general: ITC needs no label: the signal is the heat of the interaction.)

Assay [1] has as its system G-quadruplex DNAs (c-kit1, VEGF, bcl-2 2345 and TBA). The assay is described as follows: UV-visible titration with G-quadruplex DNA. It counts as binding. To be noted: ligand 10 μM, DNA 0-150 μM, 250 mM KCl, Tris-HCl pH 7.5. The protocol:
UV titration studies of DNA with the triazene ligands, DMZ and Triazene-1. The molar extinction coefficients at 260 nm for 22-mer c-kit1, 18-mer VEGF, 23-mer bcl-2 2345, 15-mer TBA and 20-mer 8 bp AT are as follows 226,700 M^−1 cm^−1, 169,800 M^−1 cm^−1, 227,300 M^−1 cm^−1, 143,300 M^−1 cm^1 and 205,500 M^−1 cm^−1, respectively. The concentration of ligands used in this study was 10 μM and the DNA concentrations were 0, 0.25, 1.5, 3, 5, 6, 7, 8, 9, 10, 20, 30, 40, 50, 100, and 15 μM. The buffer contained 250 mM KCl, 50 mM Tris-HCl (at pH 7.5). The following quadruplex DNA were tested: c-kit1, VEGF, bcl-2 2345, and TBA. Duplex DNA (8 bp AT) was also tested. The sample was first heated up to 95° C. for 5 min without the ligand and then cooled down to room temperature in 15 min. The ligand was then added and the mixture was incubated at 4° C. for ˜12 h before recording the data. In case of Triazene-1 and Triazene-2, the sample mixture contained 1% DMSO.

The test system of a further assay is 27mer bcl-2. The assay can be described thus: ITC titration with bcl-2 G-quadruplex. The assay is classed as binding. The protocol: as §1, §3
The subject of another assay is MCR5A. The assay can be described thus: WST-1 IC50 determination, normal fibroblast. To be noted: normal fibroblast cell, 72 hours. The assay is classed as cell-based, human. Here is the method: (§4) Cell lines and culturing. The following human cell lines were purchased from ATCC (ATCC, Manassas, Va.): prostate cancer cells (PC-3), triple negative breast cancer cells (MDA-MB-231), ovarian cancer cells (OVCAR-3), normal bone marrow (NBM) and normal fibroblast cells (MCR5A). MDA-MB-231 cells were grown at 37° C. with 5% CO2 atmosphere with DMEM (Life technologies, Carlsbad, Calif.) supplemented with heat-inactivated 10% (V/V) fetal bovine serum. OVCAR-3 and PC-3 cells were grown at 37° C. with 5% CO2 atmosphere with RPMI (Life technologies, Carlsbad, Calif.) supplemented with heat-inactivated 10% (V/V) fetal bovine serum. Cell lines were grown and maintained according to ATCC recommendations.
(§5) IC50 determination. Cell lines were seeded into 96-well plates the afternoon prior to treatment. Cell seeding number was determined by growing cells in log phase growth during drug treatment. Approximately 18 hours later, compounds were semi-serially diluted in dimethyl sulfoxide (DMSO) and then growth medium, and added to cells. Plates were incubated for 72 hours prior to addition of WST-1 (Promega, Madison Wis.). Plates were read after 4 additional hours of incubation at 37° C. using a Bio-Tek Synergy HT plate reader (Bio-Tek, Winooski, Vt.). Data was analyzed, graphed and IC50s generated using GraphPad Prism Software (Graphpad, La Jolla, Calif.).
Background: Formazan colour is commonly taken as a measure of viable cells.

The next assay deals with NBM. The assay can be described thus: WST-1 IC50 determination, normal bone marrow. To be noted: normal bone marrow, 72 hours, WST-1. It counts as cell-based, human. The protocol: as §4, §5
IC50 determination: For the determination of IC50 for the azolamide class, the same protocol as described previously was followed.

Setting [2] is: ITC, 20 mM Tris, 100 mM KCl, pH 7.2.

A word on the IC50: it is the concentration that gives 50% inhibition.

With `N=C(N)c1ccc(/N=N/Nc2ccc(C(=N)N)cc2)cc1` [DMZ, Diminazene aceturate, reference compound], in the assay with 22mer hTel K^+, the K3 was determined as 55000 M⁻¹. The “induced CD of ligand” value with 8 bp AT is given as “large positive induced CD”. Further, the ITC interaction heat entry in the assay on 22mer hTel Na^+ is listed as “calorimetrically silent”. This compound also had a K2 in the assay with 7bp HP•AT (20 mM Tris, 100 mM KCl, pH 7.2) of 45000 M⁻¹. The “shift of absorption spectrum upon DNA titration” value in assay [1] was “remarkable bathochromic shift (red shift) and a hypochromic effect”. In the assay on 27mer bcl-2 (setting [2]), this compound had a K1 of 8.8e+08 M⁻¹, a K2 of 1.9e+06 M⁻¹ and a K3 of 64000 M⁻¹. At 27mer bcl-2 (from ITC data, as low as, read-out: dissociation constant), the Kd is approximately 0.001 µM.

With `N=C(N)c1ccc(/N=N/Nc2ccccc2C#Cc2ccc(F)cc2)cc1` [DMZ13], in the assay on MCR5A, the “IC50 ± SD, MCR5A” value was “NE (NE means not effective. Cell viability was the same or greater than 75% of the DMSO control at 20 μM compound concentration.)”. The “IC50 ± SD, NBM” value in the assay on NBM is on record as “NE (NE means not effective. Cell viability was the same or greater than 75% of the DMSO control at 20 μM compound concentration.)”.

As to `N=C(N)c1ccc(NN=Nc2ccccc2)cc1` [DMZ1], the K1 in the assay on 22mer hTel K^+ turned out to be 2100 M⁻¹; in the assay on 7bp HP•AT (20 mM Tris, 100 mM KCl, pH 7.2), 29000 M⁻¹; in the assay with 27mer bcl-2 (setting [2]), 3500 M⁻¹. The “induced CD of ligand” value in the assay on 8 bp AT is “No induced CD”. Further, the ITC interaction heat result in the assay with 22mer hTel Na^+ is on record as “calorimetrically silent”. For the same compound, in the assay on 7bp HP•AT (compare Tables 2 and 3), the “reduction in binding affinity relative to DMZ” value is approximately 30 times. The “shift of absorption spectrum upon DNA titration” value in assay [1] is “red shift”.

Consider `N=C(N)c1ccc(N=NNc2cccc(C#Cc3ccc(F)cc3)c2)cc1` [DMZ9], for which the IC50 in the assay on MCR5A (read-out: IC50 ± SD, MCR5A) was 8.3 ± 4 µM; in the assay with NBM (read-out: IC50 ± SD, NBM), 5.6 µM.
